According to PMC5635289, “Differential Effects of Angelicin Analogues on NF-κB Activity and IL-8 Gene Expression in Cystic Fibrosis IB3-1 Cells” (Mediators of Inflammation, 2017):

Tests used:
[1] = molecular target: T1, NF-κB p50 (Homo sapiens, UniProt P19838); test: EMSA, inhibition of NF-κB/DNA interactions; assay type: binding; conditions: NF-κB p50 and 32P-labeled NF-κB oligonucleotide, MIC = minimal inhibitory concentration, 12.5 μM was the lowest concentration used
T1 construct: This assay was performed using purified NF-κB p50; purchased Promega
T1 sequence (P19838 1-433 limits assumed): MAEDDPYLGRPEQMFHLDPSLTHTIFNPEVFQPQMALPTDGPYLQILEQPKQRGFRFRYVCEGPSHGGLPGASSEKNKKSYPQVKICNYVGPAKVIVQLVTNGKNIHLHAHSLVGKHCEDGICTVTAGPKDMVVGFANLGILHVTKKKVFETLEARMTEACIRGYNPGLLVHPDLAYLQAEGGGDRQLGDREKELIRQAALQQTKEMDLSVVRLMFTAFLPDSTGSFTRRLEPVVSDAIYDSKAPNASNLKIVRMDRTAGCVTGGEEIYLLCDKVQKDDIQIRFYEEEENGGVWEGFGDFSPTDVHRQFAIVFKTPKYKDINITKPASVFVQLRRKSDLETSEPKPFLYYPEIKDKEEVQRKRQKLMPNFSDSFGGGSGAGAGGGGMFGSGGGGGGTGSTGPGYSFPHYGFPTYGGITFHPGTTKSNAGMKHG
Description: Electrophoretic mobility shift assays were performed using double-stranded ^32P-labeled oligonucleotides as target DNA. Binding reactions were set up as previously described in binding buffer (10% glycerol, 0.05% NP-40, 10 mM Tris-HCl pH 7.5, 50 mM NaCl, 0.5 mM DTT, and 10 mM MgCl2), in the presence of 0.1 μl/20 μl of NF-κB p50 (50 gsu) (Promega, Madison, WI, USA) and 0.25 ng of labeled oligonucleotide, in a total volume of 20 μl. After 30 min binding at room temperature, samples were electrophoresed at constant voltage (200 V for 30 min) through a low ionic strength (0.25 TBE buffer) (1 TBE/40.089 M Tris-borate, 0.002 M EDTA) on 6% polyacrylamide gels until the tracking dye (bromophenol blue) reached the bottom of a 16 cm slab. Gels were dried and exposed for autoradiography with intensifying screens at […]. In these experiments, DNA/protein complexes migrate through the gel with slower efficiency. In studies on the inhibitors of protein/DNA interactions, addition of the reagents was as follows: (i) nuclear factors, (ii) active principles, (iii) binding buffer, and (iv) labeled oligonucleotides mimicking the binding sites for TF to be modulated. The nucleotide sequence of double-stranded target DNA utilized in these experiments was 5′-CGC TGG GGA CTT TCC ACG G-3′ (sense strand, NF-κB). The synthetic oligonucleotides utilized in this study were purchased from Sigma Genosys (Sigma Genosys, Cambs, UK). To calculate the effective concentrations, three different autoradiograms obtained from different time exposures were scanned and compared to control EMSA performed without addition of angelicin analogues (two independent experiments were performed).
The effects of TMA derivatives on NF-κB- (nuclear factor-kappaB-) mediated induction of proinflammatory genes was verified first in vitro by electrophoretic mobility shift assay (EMSA) with the aim to verify and quantify the possible inhibition of NF-κB/DNA interactions. This assay was performed using purified NF-κB p50 and ^32P-labeled target NF-κB double-stranded oligonucleotide mimicking the NF-κB consensus sequence present within the IL-8 gene promoter.

[2] = test system: IL-8; test: Bioplex analysis of IL-8 release in TNF-α-induced IB3-1 cells; assay type: cell-based, human; conditions: 1 μM, compared to untreated TNF-α-stimulated IB3-1 cells, 5 h pretreatment then TNF-α 24 h
Description: (§1) The Bioplex cytokine assay is designed for the multiplexed quantitative measurement of multiple cytokines in a single well using as little as 50 μl of sample. In our experiments, the premixed multiplex beads (27-plex) of the Bioplex human cytokines were used. 50 μl of cytokine standards or samples (supernatants recovered from treated cells and diluted to 2 μg/μl) were incubated with 50 μl of anticytokine conjugated beads in 96-well filter plates for 30 min at room temperature with shaking. Plates were washed by vacuum filtration three times with 100 μl of Bioplex wash buffer, 25 μl of diluted detection antibody were added, and plates were incubated for 30 min at room temperature with shaking. After three filter washes, 50 μl of streptavidin-phycoerythrin were added, and the plates were incubated for 10 min at room temperature with shaking. Finally, plates were washed by vacuum filtration three times, beads were suspended in Bioplex assay buffer, and samples were analyzed on a Bio-Rad 96-well plate reader using the Bioplex Suspension Array System and Bioplex Manager software (Bio-Rad Laboratories Inc., Hercules, CA).
(§2) In order to verify the effects on the secretion of IL-8 by IB3-1 cells, Luminex technology was employed to detect and quantify proteins secreted into the medium. […]

[3] = test system: IP-10; test: Bioplex analysis of IP-10 secretion in TNF-α-induced IB3-1 cells; assay type: cell-based, human; conditions: 1 μM, TNF-α-stimulated IB3-1 cells, three independent experiments
Description: as §1, §2

## Cc1oc2c(C)cc3c(C)cc(=O)oc3c2c1C [Compound 1]
[1]
  Inhibition of NF-κB/DNA complex (MIC): <12.5 (^∗) μM
[2]
  Reduction of IL-8 secretion: about 50%
[3]
  Increase of TNF-α-inducible IP-10: more than twofold
